{"source": "patent US11766423B2", "about": "(THE JOHNS HOPKINS UNIVERSITY, priority 2018, dated 2023)", "key": {"[1]": {"conditions": "cited from earlier work"}, "nSMase2": {"system": "nSMase2", "conditions": "literature value; read-out: nSMase2 IC50 of prototype inhibitor; cited from earlier work"}, "Rat primary astrocytes": {"system": "Rat primary astrocytes", "assay": "GFAP immunofluorescence, activation of serum-deprived astrocytes", "type": "cell-based", "conditions": "10 μM, 2 h; for GFAP levels without serum starvation: complete medium; for astrocyte activation (GFAP) in response to serum starvation: serum deprivation", "description": "Media was collected after 2 h incubation and centrifuged at 2700 g for 15 minutes at 4° C. Supernatant was collected and the number of extracellular vesicles (EVs) was quantified using ZetaView Nanoparticle Tracker. The mean concentration of EVs/mL (±SEM) was calculated from 4 replicate experiments. […] GFP-containing exosomes released from astrocytes in the brain were quantified in plasma of mice 2.5 h following compound administration. Data are mean±SD, n=5-10 mice per condition. *, p<0.05 compared to saline control; ###, p<0.001 compared to IL1-β group; ***, p<0.001 compared to saline group. […] Astrocytes grown in complete medium were used as no treatment control. Cells were fixed and stained with anti-GFAP antibody (1:500, Sigma). Fluorescence intensity was measured using Image J. (FIG. 5D) Quantitation of fluorescence in (FIG. 5C). Bar graph represents background corrected mean fluorescence intensity measured from 100 astrocytes per condition. Error bars represent standard error of mean. One-way ANOVA followed by Tukey's posthoc test was performed;\nCells were fixed and immunofluorescence labeling for GFAP was performed."}, "GFAP-GFP mice [2]": {"system": "GFAP-GFP mice", "assay": "Mouse model of brain inflammation, striatal IL-1β injection in GFAP-GFP mice"}, "primary astrocytes": {"system": "primary astrocytes", "assay": "Inhibition of exosome (EV) release from primary astrocytes", "type": "cell-based, mouse", "conditions": "2 h; for effect on exosome (EV) release in vitro, in words: primary astrocytes, FBS withdrawal, 0.03-30 μM"}, "alkaline phosphatase": {"target": "alkaline phosphatase", "assay": "Counter assay without nSMase2, phosphorylcholine as substrate", "type": "biochemical", "conditions": "phosphorylcholine 2 μM, no nSMase2, no SM; read-out: IC50 alkaline phosphatase in counter screen", "description": "Following assay validation, 365,000 compounds were screened from the Molecular Libraries Small Molecule Repository (MLSMR) and 2816 compounds were screened from the NCGC pharmaceutical collection (NPC) library for human nSMase2 inhibitors. Compounds were screened at 4 concentrations: 1.1 μM, 11 μM, 57 μM and 114 μM. Cambinol (full does response in each plate) was used as positive control. After eliminating promiscuous compounds, 1990 compounds that had maximal inhibitory responses >50% at the highest concentration tested and robust curve response classes (CRC) (Inglese, et al., 2006) were selected for re-testing in the same human nSMase2 activity assay and counter screen. […] There were a total of 220 compounds for follow-up confirmation (FIG. 2A)."}, "acid sphingomyelinase": {"target": "T1, acid sphingomyelinase (Homo sapiens, UniProt P17405)", "T1 sequence (P17405 47-631)": "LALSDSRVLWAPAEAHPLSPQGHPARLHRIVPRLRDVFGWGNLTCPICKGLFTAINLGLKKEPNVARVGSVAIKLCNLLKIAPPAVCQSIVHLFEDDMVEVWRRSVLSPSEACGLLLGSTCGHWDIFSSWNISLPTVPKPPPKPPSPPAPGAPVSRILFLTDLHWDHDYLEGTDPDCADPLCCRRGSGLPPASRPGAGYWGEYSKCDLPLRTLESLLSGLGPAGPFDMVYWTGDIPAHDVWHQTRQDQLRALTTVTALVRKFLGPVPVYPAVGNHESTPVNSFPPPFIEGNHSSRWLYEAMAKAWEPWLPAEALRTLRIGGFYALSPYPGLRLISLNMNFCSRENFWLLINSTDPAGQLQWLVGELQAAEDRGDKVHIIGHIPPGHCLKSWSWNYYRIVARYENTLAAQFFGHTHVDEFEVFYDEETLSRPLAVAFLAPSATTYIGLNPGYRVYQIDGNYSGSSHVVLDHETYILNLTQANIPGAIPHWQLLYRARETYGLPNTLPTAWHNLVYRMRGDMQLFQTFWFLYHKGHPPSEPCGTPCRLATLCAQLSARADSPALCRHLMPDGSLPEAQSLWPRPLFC", "assay": "Acid sphingomyelinase selectivity study, standard protocol", "type": "biochemical", "conditions": "results not shown"}, "[3]": {"assay": "Metabolic stability in mouse liver microsomes", "type": "in vitro ADME", "description": "(§1) One potential liability when using chemical probes in vivo is lack of metabolic stability which structurally inactivates the compound before it can reach its molecular target. […] Percent of drug remaining over time was determined by liquid chromatography-tandem mass spectrometry analysis (LC/MS/MS).\n(§2) Metabolic stability assay was conducted in mouse or human liver microsomes as has been described previously (Rais, et al., 2016) with minor modifications. Briefly, the reaction was carried out using potassium phosphate buffer (100 mM, pH 7.4), in the presence of an NADPH regenerating system (compound final concentration was 1 μM; 0.2 mg/mL microsomes). Compound disappearance was monitored over time using a liquid chromatography and tandem mass spectrometry (LC/MS/MS) method. Chromatographic analysis was performed using an Accela ultra high-performance system consisting of an analytical pump and an autosampler coupled with a TSQ Vantage mass spectrometer (Thermo Fisher Scientific Inc., Waltham, Mass.). […] The mobile phase consisted of 0.1% formic acid in acetonitrile and 0.1% formic acid in water with gradient elution."}, "[4]": {"conditions": "in 19 of 759 bioassays; cited from earlier work"}, "human nSMase2": {"target": "T2, human nSMase2 (Homo sapiens, UniProt Q9NY59)", "T2 sequence (Q9NY59 1-655)": "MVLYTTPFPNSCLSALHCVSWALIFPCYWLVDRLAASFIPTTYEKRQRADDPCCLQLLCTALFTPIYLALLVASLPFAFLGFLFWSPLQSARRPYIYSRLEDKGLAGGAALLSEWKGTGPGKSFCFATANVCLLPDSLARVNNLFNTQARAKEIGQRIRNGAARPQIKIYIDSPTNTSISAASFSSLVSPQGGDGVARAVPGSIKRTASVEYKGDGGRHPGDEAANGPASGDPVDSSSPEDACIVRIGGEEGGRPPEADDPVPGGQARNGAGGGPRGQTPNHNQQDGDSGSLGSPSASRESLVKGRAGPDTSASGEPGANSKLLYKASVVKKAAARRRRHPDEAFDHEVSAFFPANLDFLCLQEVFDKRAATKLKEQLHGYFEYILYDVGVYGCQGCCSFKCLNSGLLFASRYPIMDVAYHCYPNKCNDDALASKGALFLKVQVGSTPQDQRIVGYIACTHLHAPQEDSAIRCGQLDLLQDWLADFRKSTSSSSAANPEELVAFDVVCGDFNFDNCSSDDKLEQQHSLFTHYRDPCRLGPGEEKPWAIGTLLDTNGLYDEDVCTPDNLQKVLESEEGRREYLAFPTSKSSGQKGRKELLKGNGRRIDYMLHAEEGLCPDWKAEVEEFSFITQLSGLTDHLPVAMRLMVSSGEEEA", "assay": "Fluorescence-based (Amplex Red) human nSMase2 activity assay", "conditions": "rate vs SM concentration at several DPTIP concentrations"}, "[5]": {"assay": "Metabolic stability in human liver microsomes", "type": "in vitro ADME", "description": "as §1, §2"}, "GFAP-GFP mice [6]": {"system": "GFAP-GFP mice", "conditions": "co-injection with IL-1β, Dickens et al. 2017; cited from earlier work"}, "[7]": {"conditions": "10 mg/kg IP 0.5 h before IL-1β, 2 h post IL-1β"}, "[8]": {"conditions": "10 mg/kg IP, liver qRT-PCR 2 h post IL-1β"}}, "note": "Values joined by “and” are separate entries in the source; they are usually repeats but may differ in a detail not shown here. Identical values can stand only once. “Also recorded” adds a separate entry of the source."}
{"smiles": "O=c1[nH]c(=S)[nH]c(-c2ccccc2)c1Cc1c(O)ccc2ccccc12", "note": "[Cambinol]", "values": [{"measurement": "in vivo pharmacokinetic profile, in words", "setting": "[1]", "result": "poor in vivo pharmacokinetic profile"}, {"measurement": "IC50", "setting": "nSMase2", "result": "[…]"}]}
{"smiles": "COc1cc(OC)cc(-c2nc(-c3cccs3)c(-c3ccccc3)[nH]2)c1", "note": "[DPT, 2-(3,5-dimethoxyphenyl)-5-phenyl-4-(thiophen-2-yl)-1H-imidazole]", "values": [{"measurement": "GFAP levels without serum starvation", "setting": "Rat primary astrocytes", "result": "did not change GFAP levels"}, {"measurement": "astrocyte activation (GFAP) in response to serum starvation", "setting": "Rat primary astrocytes", "result": "failed to prevent astrocyte activation"}, {"measurement": "effect on IL-1β-induced EV release in vivo, in words", "setting": "GFAP-GFP mice [2]; [7]", "result": "no significant difference"}, {"measurement": "effect on IL-1β-induced EV release in vivo, in words", "setting": "GFAP-GFP mice [2]; 10 mg/kg IP 0.5 h before IL-1β, 2 h post IL-1β, listed as des-hydroxyl analog", "result": "no difference"}, {"measurement": "effect on IL-1β-induced EV release in vivo, in words", "setting": "GFAP-GFP mice [2]; 10 mg/kg IP 0.5 h before IL-1β, 2 h post IL-1β, listed as inactive analog", "result": "no statistically significant effect"}, {"measurement": "effect on IL-1β-induced upregulation of liver cytokines", "setting": "GFAP-GFP mice [2]; [8]", "result": "no effect"}, {"measurement": "effects on production of TNF-α and IL-6", "setting": "GFAP-GFP mice [2]; [8]", "result": "marginal and not statistically significant"}, {"measurement": "reduction in CCL2 production", "setting": "GFAP-GFP mice [2]; [8]", "result": "not statistically significant"}, {"measurement": "effect on exosome (EV) release in vitro, in words", "setting": "primary astrocytes; listed as des hydroxyl inactive analog of DPTIP", "result": "did not inhibit"}, {"measurement": "effect on exosome (EV) release in vitro, in words", "setting": "primary astrocytes; listed as des-hydroxyl analog", "result": "no effect"}, {"measurement": "effect on exosome (EV) release in vitro, in words", "setting": "primary astrocytes; listed as inactive analog", "result": "no effect"}]}
{"smiles": "COc1cc(-c2nc(-c3cccs3)c(-c3ccccc3)[nH]2)cc(OC)c1O", "note": "[DPTIP, 2,6-dimethoxy-4-(5-phenyl-4-thiophen-2-yl-1H-imidazol-2-yl)-phenol]", "values": [{"measurement": "IC50", "setting": "alkaline phosphatase", "result": "> 100", "unit": "µM"}, {"measurement": "IC50", "setting": "acid sphingomyelinase", "result": "> 100", "unit": "µM"}, {"measurement": "GFAP levels without serum starvation", "setting": "Rat primary astrocytes", "result": "did not change GFAP levels"}, {"measurement": "astrocyte activation (GFAP) in response to serum starvation", "setting": "Rat primary astrocytes", "result": "prevented astrocyte activation"}, {"measurement": "metabolic stability, in words", "setting": "[3]; mouse liver microsomes with NADPH", "result": "metabolically stable"}, {"measurement": "percent remaining", "setting": "[3]; mouse liver microsomes, NADPH, 1 h, 1 μM compound", "result": 100, "unit": "%"}, {"measurement": "effect on IL-1β-induced EV release in vivo, in words", "setting": "GFAP-GFP mice [2]; [7]", "result": "inhibitor of EV release; also recorded: inhibits exosome release"}, {"measurement": "reduction of IL-1β-induced astrocyte-derived (GFP+) EVs in plasma", "setting": "GFAP-GFP mice [2]; [7]", "result": "51±13% and 70%"}, {"measurement": "effect on IL-1β-induced upregulation of liver cytokines", "setting": "GFAP-GFP mice [2]; [8]", "result": "inhibited"}, {"measurement": "weak activity observed in NCATS bioassays", "setting": "[4]", "result": "2 to 50", "unit": "µM"}, {"measurement": "EC50", "setting": "primary astrocytes; Mus musculus, Astrocyte, primary astrocytes activated by FBS withdrawal, 2 h treatment", "result": "~3", "unit": "µM"}, {"measurement": "effect on exosome (EV) release in vitro, in words", "setting": "primary astrocytes", "result": "inhibited exosome release from astrocytes in a dose dependent manner; also recorded: inhibitor of EV release; also recorded: inhibits exosome release"}, {"measurement": "mode of inhibition with respect to sphingomyelin", "setting": "human nSMase2", "result": "noncompetitive inhibition; also recorded: non-competitive"}, {"measurement": "metabolic stability, in words", "setting": "[5]; human liver microsomes with NADPH", "result": "metabolically stable"}, {"measurement": "percent remaining", "setting": "[5]; human liver microsomes, NADPH, 1 h, 1 μM compound", "result": 100, "unit": "%"}]}
{"smiles": "COc1cc(O)c(C(=O)O)c(-c2cc(O)c(O)cc2C)c1", "note": "[altenusin]", "values": [{"measurement": "neutrophil infiltration into brain parenchyma", "setting": "GFAP-GFP mice [6]", "result": "suppresses neutrophil infiltration"}]}
